How the values were obtained:
[1] = tested on: HCT116 cells, MKN45 cells; test: Test C: Measurement of cell proliferation by 14C-thymidine pulse; assay type: cell-based; details: 14C-thymidine incorporation, 96 h of treatment; cell line not given
Method: (§1) Stop the reaction with 100 μl of stop solution. Read without delay at […], 0.1 second on Wallac Victor plate reader. • C) Test C: Measurement of cell proliferation by ^14c-thymidine pulse
The cells are seeded into Cytostar 96-well plates in 180 μl for 4 hours at 37° C. and 5% CO2: HCT116 cells at a rate of 2500 cells per well in DMEM medium+10% foetal calf serum+1% L-glutamine and MKN45 cells at a rate of 7500 cells per well in RPMI medium+10% foetal calf serum+1% L-glutamine. After these 4 hours of incubation, the products are added in 10 μl as a 20-fold concentrated solution according to the dilution method mentioned for the ELISA. The products are tested at 10 concentrations in duplicate from 10 000 nM to 0.3 nM with an increment of 3.
After treatment for 72 h, add 10 μl of ^14C-thymidine at 10 μCi/ml to obtain 0.1 μCi per well. The ^14C-thymidine incorporation is measured on a Micro-Beta machine (Perkin-Elmer) after 24 hours of pulse and 96 h of treatment.
All the steps of the assay are automated on BIOMEK 2000 or TECAN stations.

[2] = target: T1, MET (Homo sapiens, UniProt P08581); test: Test B: Inhibition of the autophosphorylation of MET; ELISA technique (pppY1230,1234,1235) in MKN45 cells; assay type: cell-based; set-up: Seed MKN45 cells into 96-well plates (Cell coat BD polylysine) at 20 000 cells/well; endogenous in cells; host or cells: MKN45 cells; details: 1 h treatment, PhosphoMET ELISA
Method: Leave to adhere for 24 hours in an incubator.
The cells are treated the day after seeding with the products at 6 concentrations in duplicate for 1 h. At least 3 control wells are treated with the same final amount of DMSO.
Product dilution: Stock at 10 mM in pure DMSO—range from 10 mM to 30 μM with an increment of 3 in pure DMSO—intermediate 1/50 dilutions in culture medium and then removal of 10 μl added directly to the cells (200 μl): final range of 10 000 to 30 nM.
At the end of the incubation, carefully remove the supernatant and rinse with 200 μl of PBS. Next, place 100 μl of lysis buffer directly in the wells on ice and incubate at 4° C. for 30 minutes. Lysis buffer: 10 mM Tris HCl, pH7.4, 100 mM NaCl, 1 mM EDTA, 1 mM EGTA, 1% Triton X-100, 10% glycerol, 0.1% SDS, 0.5% deoxycholate, 20 mM NaF, 2 mM Na3VO4, 1 mM PMSF and cocktail of antiproteases.
The 100 μl of lysates are transferred into a V-bottomed polypropylene plate and the ELISA is performed immediately, or the plate is frozen at −80° C. • b) PhosphoMET ELISA BioSource Kit KH00281
Into each well of the kit plate, add 70 μl of kit dilution buffer+30 μL of cell lysate or 30 μl of lysis buffer for the blanks. Incubate for 2 h with gentle agitation at ambient temperature.
Rinse the wells 4 times with 400 μl of kit washing buffer. Incubate with 100 μl of anti-phospho MET antibody for 1 hour at ambient temperature.
Rinse the wells 4 times with 400 μl of kit washing buffer. Incubate with 100 μl of anti-rabbit HRP antibody for 30 minutes at ambient temperature (except for the wells of chromogen alone).
Rinse the wells 4 times with 400 μl of kit washing buffer. Introduce 100 μL of chromogen and incubate for 30 minutes in the dark at ambient temperature.
as §1
Target sequence in this assay (P08581 25-1390): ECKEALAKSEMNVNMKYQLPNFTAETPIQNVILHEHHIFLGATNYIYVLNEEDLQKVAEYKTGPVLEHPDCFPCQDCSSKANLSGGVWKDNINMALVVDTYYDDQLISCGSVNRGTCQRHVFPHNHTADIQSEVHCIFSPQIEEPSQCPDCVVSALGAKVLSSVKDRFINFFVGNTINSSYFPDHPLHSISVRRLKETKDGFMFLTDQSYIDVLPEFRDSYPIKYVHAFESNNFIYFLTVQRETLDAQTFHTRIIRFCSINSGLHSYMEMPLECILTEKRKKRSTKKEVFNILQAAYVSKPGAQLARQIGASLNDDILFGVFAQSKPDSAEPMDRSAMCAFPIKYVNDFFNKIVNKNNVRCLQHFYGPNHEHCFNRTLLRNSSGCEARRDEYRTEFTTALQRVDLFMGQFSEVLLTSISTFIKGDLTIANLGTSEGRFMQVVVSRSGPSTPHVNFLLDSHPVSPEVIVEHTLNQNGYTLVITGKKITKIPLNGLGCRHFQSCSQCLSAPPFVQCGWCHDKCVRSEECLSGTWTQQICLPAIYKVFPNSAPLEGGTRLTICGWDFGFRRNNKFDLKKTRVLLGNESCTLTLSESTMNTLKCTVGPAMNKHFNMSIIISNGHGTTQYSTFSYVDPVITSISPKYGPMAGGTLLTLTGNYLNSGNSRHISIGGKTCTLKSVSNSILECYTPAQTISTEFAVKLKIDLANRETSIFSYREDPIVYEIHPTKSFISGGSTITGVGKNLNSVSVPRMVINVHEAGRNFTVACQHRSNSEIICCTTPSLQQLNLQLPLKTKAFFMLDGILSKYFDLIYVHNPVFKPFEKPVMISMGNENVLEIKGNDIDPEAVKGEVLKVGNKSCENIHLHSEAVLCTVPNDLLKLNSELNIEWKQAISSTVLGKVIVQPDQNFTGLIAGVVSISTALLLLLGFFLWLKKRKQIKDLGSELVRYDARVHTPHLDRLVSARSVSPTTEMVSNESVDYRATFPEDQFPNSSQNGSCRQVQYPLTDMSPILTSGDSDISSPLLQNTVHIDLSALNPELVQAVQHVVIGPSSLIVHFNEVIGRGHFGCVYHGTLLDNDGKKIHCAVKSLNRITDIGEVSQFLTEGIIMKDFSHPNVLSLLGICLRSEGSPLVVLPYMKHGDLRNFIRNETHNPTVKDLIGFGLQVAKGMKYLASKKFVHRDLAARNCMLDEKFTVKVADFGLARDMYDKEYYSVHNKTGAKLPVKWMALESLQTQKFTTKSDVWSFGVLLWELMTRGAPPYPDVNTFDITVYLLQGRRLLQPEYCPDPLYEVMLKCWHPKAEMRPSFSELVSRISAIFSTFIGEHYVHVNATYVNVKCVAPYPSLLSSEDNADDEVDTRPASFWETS

[3] = target: T1, MET; test: Test A: HTRF MET assay in 96-well format; assay type: biochemical; set-up: The His-Tev-MET (956-1390) recombinant DNA in pFastBac (Invitrogen) is transfected into insect cells; His tag (N, cleaved yes); TEV cleavage site (N); made in house; host or cells: SF21 insect cells (baculovirus, pFastBac); details: MET 5 nM, 10 μM ATP
Method: I) Expression and Purification of MET, Cytoplasmic Domain
The His-Tev-MET (956-1390) recombinant DNA in pFastBac (Invitrogen) is transfected into insect cells, and after several viral amplification steps, the final baculovirus stock is tested for the expression of the protein of interest.
After infection for 72 h at 27° C. with the recombinant virus, the SF21 cell cultures are harvested by centrifugation and the cell pellets are stored at −80° C.
The cell pellets are resuspended in lysis buffer (buffer A [50 mM HEPES, pH 7.5, 250 mM NaCl, 10% glycerol, 1 mM TECP]; +cocktail of protease inhibitors, Roche Diagnostics, without EDTA, ref 1873580), stirred at 4° C. until the mixture is homogeneous and then lyzed mechanically using a “Dounce” type apparatus.
After centrifugation, the lysis supernatant is incubated for 2 h at 4° C. with nickel chelate resin (His-Trap 6 Fast Flow™, GE HealthCare). After washing with 20 volumes of buffer A, the suspension is packed into a column, and the proteins are eluted with a gradient of buffer B ([…]+290 mM imidazole).
The fractions containing the protein of interest for the purpose of electrophoretic analysis (SDS PAGE) are combined, concentrated by ultrafiltration (10 kDa cut-off) and injected onto an exclusion chromatography column (Superdex™ 200, GE HealthCare) equilibrated in buffer A.
After enzymatic cleavage of the histidine tag, the protein is reinjected onto a new IMAC nickel chelate chromatography column (His-Trap 6 Fast Flow™, GE HealthCare) equilibrated in buffer A. The fractions eluted with a gradient of buffer B and containing the protein of interest after electrophoresis (SDS PAGE) are finally combined and conserved at −80° C.
For the production of autophosphorylated protein, the previous fractions are incubated for 1 h at ambient temperature after the addition of 2 mM ATP, 2 mM MgCl2, and 4 mM Na3VO4. After the reaction has been stopped with 5 mM of EDTA, the reaction mixture is injected onto a HiPrep desalifying column (GE HealthCare) preequilibrated in buffer A+4 mM Na3VO4, and the fractions containing the protein of interest (SDS PAGE analysis) are combined and stored at −80° C. The degree of phosphorylation is verified by mass spectrometry (LC-MS) and by peptide mapping.
• A) Test A: HTRF MET assay in 96-well format
MET at a final concentration of 5 nM is incubated in a final volume of 50 μl of enzymatic reaction in the presence of the test molecule (for a final concentration range of from 0.17 nM to 10 μM, 3% DMSO final concentration) in 10 mM MOPS buffer, pH 7.4, 1 mM DTT, 0.01% Tween 20. The reaction is initiated with the substrate solution to obtain final concentrations of 1 μg/ml poly-(GAT), 10 μM ATP and 5 mM MgCl2. After incubation for 10 min at ambient temperature, the reaction is stopped with a 30 μl mix so as to obtain a final solution of 50 mM Hepes pH 7.5, 500 mM potassium fluoride, 0.1% BSA and 133 mM EDTA in the presence of 80 ng of streptavidin 61SAXLB Cis-Bio Int. and 18 ng of anti-phosphotyrosine Mab PT66-Europium Cryptate per well. After incubation for 2 hours at ambient temperature, the reading is taken at 2 wavelengths, 620 nm and 665 nm, on a reader for the TRACE/HTRF technique and the % inhibition is calculated from the 665/620 ratios.
Target sequence in this assay (P08581 956-1390): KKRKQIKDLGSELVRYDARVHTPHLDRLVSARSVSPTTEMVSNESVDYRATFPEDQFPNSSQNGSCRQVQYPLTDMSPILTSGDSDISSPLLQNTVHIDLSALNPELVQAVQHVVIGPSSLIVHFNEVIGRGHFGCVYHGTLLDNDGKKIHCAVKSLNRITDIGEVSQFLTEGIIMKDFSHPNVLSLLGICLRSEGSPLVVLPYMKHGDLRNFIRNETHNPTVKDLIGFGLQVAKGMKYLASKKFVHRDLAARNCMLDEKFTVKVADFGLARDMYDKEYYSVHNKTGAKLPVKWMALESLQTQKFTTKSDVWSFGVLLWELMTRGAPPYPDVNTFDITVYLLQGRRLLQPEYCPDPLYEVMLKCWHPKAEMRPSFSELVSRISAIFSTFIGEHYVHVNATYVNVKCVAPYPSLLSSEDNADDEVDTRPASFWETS

| SMILES | IC50 [1] [nM] | IC50 [2] [nM] | IC50 [3] [nM] |
| --- | --- | --- | --- |
| CC(CO)(CCl)COc1ccc2nnc(Sc3ccc4nc(NC(=O)OC(C)(C)C)sc4c3)n2n1 (stereo not drawn) [Example 52, 2-Methylpropan-2-yl[6-({6-[3-chloro-2-(hydroxymethyl)-2-methylpropoxy]-[1,2,4]triazolo[4,3-b]pyridazin-3-yl}sulphanyl)-1,3-benzothiazol-2-yl]carbamate] | < 1000 | < 100 | < 100 |
| CCOC1=Nn2c(nnc2Sc2ccc3nc(NC(=O)NCCN4CCOCC4)sc3c2)CC1 [Example 38, 1-{6-[(6-Ethoxy-7,8-dihydro[1,2,4]triazolo[4,3-b]pyridazin-3-yl)sulphanyl]-1,3-benzothiazol-2-yl}-3-[2-(morpholin-4-yl)ethyl]urea] | < 1000 | < 100 | < 100 |
| CCOc1ccc2nnc(Sc3ccc4nc(NC(=O)NC5CC5)sc4c3)n2n1 [Example 59, 1-cyclopropyl-3-{6-[(6-ethoxy[1,2,4]triazolo[4,3-b]pyridazin-3-yl)sulphanyl]-1,3-benzothiazol-2-yl}urea] | < 1000 | < 100 | < 100 |
| CC(C)C(=O)Nc1nc2ccc(Sc3nnc4ccc(-c5ccc(F)cc5)nn34)cc2s1 [Example 66, N-(6-{[6-(4-Fluorophenyl)[1,2,4]triazolo[4,3-b]pyridazin-3-yl]sulphanyl}-1,3-benzothiazol-2-yl)-2-methylpropanamide] | < 1000 | 100 to 500 | < 100 |
| Nc1ccc2nnc(Sc3ccc4nc(NC(=O)NCCN5CCOCC5)sc4c3)n2n1 [Example 29, 1-{6-[(6-Amino[1,2,4]triazolo[4,3-b]pyridazin-3-yl)sulphanyl]-1,3-benzothiazol-2-yl}-3-[2-(morpholin-4-yl)ethyl]urea] | < 1000 | 100 to 500 | < 100 |
| O=C(Nc1nc2ccc(Sc3nnc4ccc(-c5ccc(F)cc5)nn34)cc2s1)Oc1ccccc1 [Example 33, Phenyl (6-{[6-(4-fluorophenyl)[1,2,4]triazolo[4,3-b]pyridazin-3-yl]sulphanyl}-1,3-benzothiazol-2-yl)carbamate] | < 1000 | < 100 | < 500 |
| CC(C)(C)C(=O)Nc1ccc2nnc(Sc3ccc4nc(NC(=O)NCCN5CCOCC5)sc4c3)n2n1 [Example 32, 2,2-Dimethyl-N-(3-{[2-({[2-(morpholin-4-yl)ethyl]carbamoyl}amino)-1,3-benzothiazol-6-yl]sulphanyl}[1,2,4]triazolo[4,3-b]pyridazin-6-yl)propanamide] | < 1000 | < 100 | < 100 |
| O=C(Nc1nc2ccc(Sc3nnc4ccc(-c5cccc(F)c5)nn34)cc2s1)C1CC1 [Example 67, N-(6-{[6-(3-Fluorophenyl)[1,2,4]triazolo[4,3-b]pyridazin-3-yl]sulphanyl}-1,3-benzothiazol-2-yl)cyclopropanecarboxamide] | < 1000 | < 100 | < 100 |
| COCCNc1nc2ccc(Sc3nnc4ccc(-c5ccc(F)cc5)nn34)cc2s1 [Example 26, 6-{[6-(4-Fluorophenyl)[1,2,4]triazolo[4,3-b]pyridazin-3-yl]sulphanyl}-N-(2-methoxyethyl)-1,3-benzothiazol-2-amine] | < 1000 | < 100 | < 100 |
| C[C@@H]1CN(CCNC(=O)Nc2nc3ccc(Sc4nnc5ccc(-c6ccc(F)cc6)nn45)cc3s2)C[C@H](C)O1 [Example 11, 1-{2-[(2R,6S)-2,6-dimethylmorpholin-4-yl]ethyl}-3-(6-{[6-(4-fluorophenyl)-[1,2,4]triazolo[4,3-b]pyridazin-3-yl]sulphanyl}-1,3-benzothiazol-2-yl)urea] | < 1000 | < 100 | < 100 |
| COc1ccc2nnc(Sc3ccc4nc(NC(=O)NCCN5CCCC5)sc4c3)n2n1 [Example 49, 1-{6-[(6-Methoxy[1,2,4]triazolo[4,3-b]pyridazin-3-yl)sulphanyl]-1,3-benzothiazol-2-yl}-3-[2-(pyrrolidin-1-yl)ethyl]urea] | < 1000 | < 100 | < 100 |
| COCCNc1ccc2nnc(Sc3ccc4nc(NC(=O)NCCN5CCCC5)sc4c3)n2n1 [Example 48, 1-[6-({6-[(2-Methoxyethyl)amino][1,2,4]triazolo[4,3-b]pyridazin-3-yl}sulphanyl)-1,3-benzothiazol-2-yl]-3-[2-(pyrrolidin-1-yl)ethyl]urea] | < 1000 | 100 to 500 | < 100 |
| CC(C)(C)OC(=O)Nc1nc2ccc(Sc3nnc4ccc(-n5ccnc5)nn34)cc2s1 [Example 22, 1,1-Dimethylethyl (6-{[6-(1H-imidazol-1-yl)[1,2,4]triazolo[4,3-b]pyridazin-3-yl]sulphanyl}-1,3-benzothiazol-2-yl)carbamate] | < 1000 | 100 to 500 | < 100 |

— patent publication US9115134B2, “6-triazolopyridazine sulfanyl benzothiazole derivatives as MET inhibitors” (SANOFI, priority 2007, dated 2015)
